From US8859535B2, “Hydroxy substituted isoquinolinone derivatives” (Novartis AG, priority 2011, dated 2014)

Columns and labels:
Type in all cases: binding
[1] = molecular target: T1, human MDM2 protein (amino acids 2-188) (Homo sapiens, UniProt Q00987); test: p53-MDM2 TR-FRET assay (p53-MDM2 Assay 1); details: 1.25 nM MDM2-biotinylated, 10 nM Cy5-p53 peptide; read-out: IC50 (μM) of p53-Hdm2 inhibition (TR-FRET) Assay 1
T1 construct: human MDM2 protein (amino acids 2-188); made in house
Summary of the method: (§1)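 Peptide displacement read as 665/620 nm TR-FRET ratio (excitation 340 nm) after 15 min room temperature with 10 nM Cy5-p53 aa18-26, following 15 min preincubation of Eu-streptavidin (0.625 nM) with biotinylated MDM4 aa 2-185 (2.5 nM) or MDM2 aa 2-188 (1.25 nM); IC50 curve-fitted. MDM2 Assay 2: MDM2 and Eu-streptavidin each 0.1 nM.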

[2] = molecular target: T1, human MDM2 protein (amino acids 2-188); test: p53-MDM2 TR-FRET assay, modified (p53-MDM2 Assay 2); details: 0.1 nM MDM2, 0.1 nM Europium labeled streptavidin; read-out: IC50 (nM) of p53-Hdm2 inhibition (TR-FRET) Assay 2
Summary of the method: as §1

[3] = molecular target: T2, human MDM4 protein (amino acids 2-185) (Homo sapiens, UniProt O15151); test: p53-MDM4 TR-FRET assay (p53-MDM4 Assay 1); details: 2.5 nM MDM4-biotinylated, 10 nM Cy5-p53 peptide; read-out: IC50 (μM) of p53-Hdm4 inhibition (TR-FRET) Assay 1
T2 construct: human MDM4 protein (amino acids 2-185); made in house
T2 sequence (O15151 2-185): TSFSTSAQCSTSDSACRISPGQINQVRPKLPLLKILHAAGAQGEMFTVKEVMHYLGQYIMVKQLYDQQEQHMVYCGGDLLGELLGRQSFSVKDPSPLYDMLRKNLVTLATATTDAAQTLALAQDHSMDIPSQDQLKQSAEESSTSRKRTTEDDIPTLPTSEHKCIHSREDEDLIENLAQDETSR
Summary of the method: as §1

T1 sequence (Q00987 2-188): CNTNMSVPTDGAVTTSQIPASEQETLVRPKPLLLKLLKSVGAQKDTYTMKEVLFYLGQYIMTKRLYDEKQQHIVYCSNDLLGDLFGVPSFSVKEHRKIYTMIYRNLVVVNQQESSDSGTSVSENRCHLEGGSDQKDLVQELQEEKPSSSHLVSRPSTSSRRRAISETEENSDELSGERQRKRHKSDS

| SMILES | IC50 [1] [µM] | IC50 [2] [nM] | IC50 [3] [µM] |
| --- | --- | --- | --- |
| COc1cc2c(cc1OC(C)C)[C@H](c1ccc(Cl)cc1)N(c1ccc(C(C)(O)C3CC4CCC(C3)N4C=O)cc1)C(=O)C2 (stereo partly drawn) [Example 111, 3-(1-{4-[(S)-1-(4-Chloro-phenyl)-7-isopropoxy-6-methoxy-3-oxo-3,4-dihydro-1H-isoquinolin-2-yl]-phenyl}-1-hydroxy-ethyl)-8-aza-bicyclo[3.2.1]octane-8-carbaldehyde] | 0.0021 | 1.5 | 2.55 |
| CCN1C2CCC1CC(C(C)(O)c1ccc(N3C(=O)Cc4cc(OC)c(OC(C)C)cc4[C@@H]3c3ccc(Cl)cc3)cc1)C2 (stereo partly drawn) [Example 112, (S)-1-(4-Chloro-phenyl)-2-{4-[1-(8-ethyl-8-aza-bicyclo[3.2.1]oct-3-yl)-1-hydroxy-ethyl]-phenyl}-7-isopropoxy-6-methoxy-1,4-dihydro-2H-isoquinolin-3-one] | 0.003 | 2.76 | 3.46 |
| COc1cc2c(cc1OC(C)C)[C@H](c1ccc(Cl)cc1)N(c1ccc(C(C)(O)C3CC4CCC(C3)N4CCO)cc1)C(=O)C2 (stereo partly drawn) [Example 113, (S)-1-(4-Chloro-phenyl)-2-(4-{1-hydroxy-1-[8-(2-hydroxy-ethyl)-8-aza-bicyclo[3.2.1]oct-3-yl]-ethyl}-phenyl)-7-isopropoxy-6-methoxy-1,4-dihydro-2H-isoquinolin-3-one] | 0.0048 | 2.52 | 4.45 |
| COc1cc2c(cc1OC(C)C)[C@H](c1ccc(Cl)cc1)N(c1ccc(C(C)(O)C3CC4CCC(C3)N4C(=O)CO)cc1)C(=O)C2 (stereo partly drawn) [Example 114, (S)-1-(4-Chloro-phenyl)-2-(4-{1-hydroxy-1-[8-(2-hydroxy-acetyl)-8-aza-bicyclo[3.2.1]oct-3-yl]-ethyl}-phenyl)-7-isopropoxy-6-methoxy-1,4-dihydro-2H-isoquinolin-3-one] | 0.0045 | 4.76 | 4.92 |
| COc1cc2c(cc1OC(C)C)[C@H](c1ccc(Cl)cc1)N(c1ccc(C(C)(O)C3CC4CCC(C3)N4C3COC3)cc1)C(=O)C2 (stereo partly drawn) [Example 115, (S)-1-(4-Chloro-phenyl)-2-{4-[1-hydroxy-1-(8-oxetan-3-yl-8-aza-bicyclo[3.2.1]oct-3-yl)-ethyl]-phenyl}-7-isopropoxy-6-methoxy-1,4-dihydro-2H-isoquinolin-3-one] | 0.0051 | 5.11 | 5.39 |
| COc1cc2c(cc1OC(C)C)[C@H](c1ccc(Cl)cc1)N(c1ccc(C(C)(O)C3CC4CCCC(C3)N4)cc1)C(=O)C2 (stereo partly drawn) [Example 116, (S)-2-{4-[1-(9-Aza-bicyclo[3.3.1]non-3-yl)-1-hydroxy-ethyl]-phenyl}-1-(4-chloro-phenyl)-7-isopropoxy-6-methoxy-1,4-dihydro-2H-isoquinolin-3-one] | 0.0036 | 3.4 | 3.93 |
| COc1cc2c(cc1OC(C)C)[C@H](c1ccc(Cl)cc1)N(c1ccc(C(C)(O)C3CC4CCCC(C3)N4C=O)cc1)C(=O)C2 (stereo partly drawn) [Example 117, 3-(1-{4-[(S)-1-(4-Chloro-phenyl)-7-isopropoxy-6-methoxy-3-oxo-3,4-dihydro-1H-isoquinolin-2-yl]-phenyl}-1-hydroxy-ethyl)-9-aza-bicyclo[3.3.1]nonane-9-carbaldehyde] | 0.0028 | 1.6 | 2.88 |
| COc1cc2c(cc1OC(C)C)[C@H](c1ccc(Cl)cc1)N(c1ccc(C(C)(O)C3CC4CCCC(C3)N4CC(F)(F)F)cc1)C(=O)C2 (stereo partly drawn) [Example 118, (S)-1-(4-Chloro-phenyl)-2-(4-{1-hydroxy-1-[9-(2,2,2-trifluoro-ethyl)-9-aza-bicyclo[3.3.1]non-3-yl]-ethyl}-phenyl)-7-isopropoxy-6-methoxy-1,4-dihydro-2H-isoquinolin-3-one] | 0.0129 | 13.7 | 25.1 |
| COc1cc2c(cc1OC(C)C)[C@H](c1ccc(Cl)cc1)N(c1ccc(C(C)(O)C3CC4CCCC(C3)O4)cc1)C(=O)C2 (stereo partly drawn) [Example 161, (S)-1-(4-Chloro-phenyl)-2-{4-[1-hydroxy-1-(9-oxa-bicyclo[3.3.1]non-3-yl)-ethyl]-phenyl}-7-isopropoxy-6-methoxy-1,4-dihydro-2H-isoquinolin-3-one] | 0.0041 | 3.72 | 4.52 |
| COc1cc2c(cc1OC(C)C)[C@H](c1ccc(Cl)cc1)N(c1ccc([C@@](C)(O)C3CCS(=O)(=O)CC3)cc1)C(=O)C2 [Example 168, (S)-1-(4-Chloro-phenyl)-2-{4-[(S)-1-(1,1-dioxo-hexahydro-1-thiopyran-4-yl)-1-hydroxy-ethyl]-phenyl}-7-isopropoxy-6-methoxy-1,4-dihydro-2H-isoquinolin-3-one] | 0.0015 | 1.25 | 1.96 |
| COc1cc2c(cc1OC(C)C)[C@H](c1ccc(Cl)cc1)N(c1ccc([C@@](C)(O)C3CC4CCC(C3)S4(=O)=O)cc1)C(=O)C2 (stereo partly drawn) [Example 174, (S)-1-(4-Chloro-phenyl)-2-{4-[(S)-1-(8,8-dioxo-8-thia-bicyclo[3.2.1]oct-3-yl)-1-hydroxy-ethyl]-phenyl}-7-isopropoxy-6-methoxy-1,4-dihydro-2H-isoquinolin-3-one] | 0.0009 | 0.961 | 1.17 |
